Measurements reported in patent US8653110B2, “Active compound combination comprising azadirachtin and a substituted enaminocarbonyl compound” (Bayer CropScience AG, priority 2010, dated 2014).

Assays:
Assay type in all cases: in vivo
Cyclocephala immaculata = test: Watering test with beetle larvae (Example 2)
Text: Beetle larvae (grubs) are important lawn pests. On the one hand, they feed on grass roots, damaging them directly, on the other hand they are a favoured food for birds which, searching for grubs, destroy the turf. For treatment against grubs, infested lawns are usually watered with insecticidal compositions. This type of treatment is emulated in the laboratory by Example 2.
To prepare a suitable active compound preparation, a commercial formulation of active compound or active compound combination is mixed with water until the desired concentration is reached. Pots with soil substrate were watered with the following active compound preparations: • 1. untreated • 2. compound (I-1) as SL 200, 600 g of active compound/ha • 3. azadirachtin, 60 g of active compound/ha • 4. compound (I-1) as SL 200+azadirachtin, 600+60 g of active compound/ha • 5. positive control: trichlorfon 4529 g of active compound/ha
L3 larvae of Cyclocephala immaculata were placed onto the pots. After 1, 4, 7, 14 days, the survival rate was determined, and this was used to calculate the efficacy of the compositions. 100% means that all grubs were killed, 0% means no activity.

[1] = tested on: Trialeurodes vaporariorum; test: Whiteflies on tomatoes (Example 5)
Protocol: Example 5 describes the effect of the combination according to the invention against whiteflies (Trialeurodes vaporariorum) on tomatoes (Lycopersicon esculentum). The test was carried out under GEP according to EPPO guideline PP 1/36(2) with 3 repetitions of in each case 4 plants. At the start of the infection, the plants were treated as follows: • 1. untreated • 2. compound (I-1) as SL 200 (compound according to formula (I-1), 17% strength), 50 g of active compound/ha • 3. azadirachtin 30 g of active compound/ha, NeemAzal® • 4. azadirachtin 15 g of active compound/ha, NeemAzal® • 5. azadirachtin 5 g of active compound/ha, NeemAzal® • 6. compound (I-1) as SL 200+azadirachtin, 50+30 g of active compound/ha • 7. compound (I-1) as SL 200+azadirachtin, 50+15 g of active compound/ha • 8. compound (I-1) as SL 200+azadirachtin, 50+5 g of active compound/ha • 9. positive control imidacloprid 100 g of active compound/ha
The spray solution was prepared by mixing commercial formulations and using water to adjust to the concentration mentioned. The application rate was 1000 l/ha. 2 applications were carried out at intervals of 14 days. The number of adult flies and the number of larvae were scored on days 2 to 21 after the first application. What is shown is the effect of the products, which becomes evident in a reduction of the number of insects or larvae compared to the untreated control. Imidacloprid was also tested, as positive control.

Spodoptera frugiperda = test: Fall armyworm caterpillars on maize, feeding damage (Example 8); conditions: reduction of feeding damage
Plutella xylostella = test: Diamondback moth bioassay on Savoy cabbage leaf discs (Example 9)
Protocol: Example 9 also describes the effect of the combination according to the invention on caterpillars of diamondback moth Plutella xylostella on Savoy cabbage. The plants were grown in a greenhouse, and five plants each were treated as follows: The spray solution was prepared by mixing commercial formulations and using water to adjust to the concentration mentioned. The application rate was 1000 l/ha. • 1. untreated • 2. compound (I-1) as SL 200 (compound according to formula (I-1), 17% strength), 50 g of active compound/ha • 3. azadirachtin 30 g of active compound/ha, NeemAzal® • 4. azadirachtin 15 g of active compound/ha, NeemAzal® • 5. azadirachtin 5 g of active compound/ha, NeemAzal® • 6. compound (I-1) as SL 200+azadirachtin, 50+30 g of active compound/ha • 7. compound (I-1) as SL 200+azadirachtin, 50+15 g of active compound/ha • 8. compound (I-1) as SL 200+azadirachtin, 50+5 g of active compound/ha • 9. positive control imidacloprid 100 g of active compound/ha
The plants were incubated under greenhouse conditions (20° C., 70% relative atmospheric humidity), the plants being placed at random. After 3 days, the first leaf samples were taken. Here, 5 leaves were picked from each plant. 10 leaf discs of a diameter of 6 cm were punched from the leaves and placed in Petri dishes covered with moistened filter paper. Once the leaf discs had been placed into the Petri dishes, 5 Plutella xylostella larvae of the L2 instar were added. The Petri dishes were placed on a tablett, covered with a dark film and kept at 20° C. in the laboratory. Evaluation was carried out on days 9, 14 and 21 after the addition of the larvae, the number of surviving animals being scored.
What is shown is the effect of the products, which becomes evident in a reduction of the number of diamondback moths compared to the untreated control.

[2] = Day 2, (I-1) 50, azadirachtin 30, (I-1)+azadirachtin 50+30, imidacloprid 100 g/ha
[3] = Day 2, azadirachtin 5, (I-1)+azadirachtin 50+5 g/ha
[4] = Day 2, azadirachtin 15, (I-1)+azadirachtin 50+15 g/ha
[5] = Day 7, (I-1) 50, azadirachtin 30, (I-1)+azadirachtin 50+30, imidacloprid 100 g/ha
[6] = Day 7, azadirachtin 5, (I-1)+azadirachtin 50+5 g/ha
[7] = Day 7, azadirachtin 15, (I-1)+azadirachtin 50+15 g/ha
[8] = Day 14, (I-1) 50, azadirachtin 30, (I-1)+azadirachtin 50+30, imidacloprid 100 g/ha
[9] = Day 14, azadirachtin 5, (I-1)+azadirachtin 50+5 g/ha
[10] = Day 14, azadirachtin 15, (I-1)+azadirachtin 50+15 g/ha
[11] = Day 21, (I-1) 50, azadirachtin 30, (I-1)+azadirachtin 50+30, imidacloprid 100 g/ha
[12] = Day 21, azadirachtin 5, (I-1)+azadirachtin 50+5 g/ha
[13] = Day 21, azadirachtin 15, (I-1)+azadirachtin 50+15 g/ha
[14] = Days 28-32, (I-1) 50, azadirachtin 30, (I-1)+azadirachtin 50+30, imidacloprid 100 g/ha
[15] = Days 35-42, (I-1) 50, azadirachtin 30, (I-1)+azadirachtin 50+30, imidacloprid 100 g/ha
[16] = Day 9, (I-1) 50, azadirachtin 30, (I-1)+azadirachtin 50+30, imidacloprid 100 g/ha

## C/C=C(\C)C(=O)O[C@H]1C[C@@H](OC(C)=O)[C@@]2(C(=O)OC)CO[C@H]3[C@@H](O)[C@@](C)([C@]45O[C@@]4(C)[C@H]4C[C@@H]5O[C@@H]5OC=C[C@@]54O)[C@H]4[C@]1(CO[C@]4(O)C(=O)OC)[C@@H]32 [azadirachtin]
Cyclocephala immaculata; day 1, L3 larvae, watering, (I-1) 600, azadirachtin 60, (I-1)+azadirachtin 600+60, trichlorfon 4529 g of active compound/ha
  Effect on day 1 in %: 0%
Cyclocephala immaculata; day 4, L3 larvae, watering, (I-1) 600, azadirachtin 60, (I-1)+azadirachtin 600+60, trichlorfon 4529 g of active compound/ha
  Effect on day 4 in %: 0%
Cyclocephala immaculata; day 7, L3 larvae, watering, (I-1) 600, azadirachtin 60, (I-1)+azadirachtin 600+60, trichlorfon 4529 g of active compound/ha
  Effect on day 7 in %: 0%
Cyclocephala immaculata; day 14, L3 larvae, watering, (I-1) 600, azadirachtin 60, (I-1)+azadirachtin 600+60, trichlorfon 4529 g of active compound/ha
  Effect on day 14 in %: 7%
Cyclocephala immaculata; entire duration of the test, azadirachtin 60 g of active compound/ha
  effect on grubs: no effect
[1]; [2]
  Activity against adults [%]: 45%
  Activity against larvae [%]: 0%
[1]; [3]
  Activity against adults [%]: 23%
  Activity against larvae [%]: 0%
[1]; [4]
  Activity against adults [%]: 47%
  Activity against larvae [%]: 0%
[1]; [5]
  Activity against adults [%]: 47%
  Activity against larvae [%]: 2%
[1]; [6]
  Activity against adults [%]: 7%
  Activity against larvae [%]: 24%
[1]; [7]
  Activity against adults [%]: 54%
  Activity against larvae [%]: 13%
[1]; [8]
  Activity against adults [%]: 32%
  Activity against larvae [%]: 13%
[1]; [9]
  Activity against adults [%]: 0%
  Activity against larvae [%]: 12%
[1]; [10]
  Activity against adults [%]: 49%
  Activity against larvae [%]: 37%
[1]; [11]
  Activity against adults [%]: 56%
  Activity against larvae [%]: 0%
[1]; [12]
  Activity against adults [%]: 16%
  Activity against larvae [%]: 0%
[1]; [13]
  Activity against adults [%]: 80%
  Activity against larvae [%]: 0%
Spodoptera frugiperda; [5]
  Activity against Spodoptera frugiperda [%]: 0%
Spodoptera frugiperda; [6]
  Activity against Spodoptera frugiperda [%]: 0%
Spodoptera frugiperda; [8]
  Activity against Spodoptera frugiperda [%]: 7%
Spodoptera frugiperda; [9]
  Activity against Spodoptera frugiperda [%]: 29%
Spodoptera frugiperda; [11]
  Activity against Spodoptera frugiperda [%]: 53%
Spodoptera frugiperda; [12]
  Activity against Spodoptera frugiperda [%]: 61%
Spodoptera frugiperda; [14]
  Activity against Spodoptera frugiperda [%]: 84%
Spodoptera frugiperda; Days 28-32, azadirachtin 5, (I-1)+azadirachtin 50+5 g/ha
  Activity against Spodoptera frugiperda [%]: 77%
Spodoptera frugiperda; [15]
  Activity against Spodoptera frugiperda [%]: 80%
Spodoptera frugiperda; Days 35-42, azadirachtin 5, (I-1)+azadirachtin 50+5 g/ha
  Activity against Spodoptera frugiperda [%]: 81%
Plutella xylostella; [16]
  Activity against Plutella xylostella [%]: 46%
Plutella xylostella; Day 9, azadirachtin 5, (I-1)+azadirachtin 50+5 g/ha
  Activity against Plutella xylostella [%]: 0%
Plutella xylostella; Day 9, azadirachtin 15, (I-1)+azadirachtin 50+15 g/ha
  Activity against Plutella xylostella [%]: 18%
Plutella xylostella; [8]
  Activity against Plutella xylostella [%]: 72%
Plutella xylostella; [9]
  Activity against Plutella xylostella [%]: 15%
Plutella xylostella; [10]
  Activity against Plutella xylostella [%]: 31%
Plutella xylostella; [11]
  Activity against Plutella xylostella [%]: 25%
Plutella xylostella; [12]
  Activity against Plutella xylostella [%]: 25%
Plutella xylostella; [13]
  Activity against Plutella xylostella [%]: 38%

## O=[N+]([O-])NC1=NCCN1Cc1ccc(Cl)nc1 [imidacloprid]
[1]; [2]
  Activity against adults [%]: 51%
  Activity against larvae [%]: 0%
[1]; [5]
  Activity against adults [%]: 89%
  Activity against larvae [%]: 60%
[1]; [8]
  Activity against adults [%]: 68%
  Activity against larvae [%]: 50%
[1]; [11]
  Activity against adults [%]: 65%
  Activity against larvae [%]: 52%
Spodoptera frugiperda; [5]
  Activity against Spodoptera frugiperda [%]: 24%
Spodoptera frugiperda; [8]
  Activity against Spodoptera frugiperda [%]: 57%
Spodoptera frugiperda; [11]
  Activity against Spodoptera frugiperda [%]: 14%
Spodoptera frugiperda; [14]
  Activity against Spodoptera frugiperda [%]: 12%
Spodoptera frugiperda; [15]
  Activity against Spodoptera frugiperda [%]: 10%
Plutella xylostella; [16]
  Activity against Plutella xylostella [%]: 43%
Plutella xylostella; [8]
  Activity against Plutella xylostella [%]: 36%
Plutella xylostella; [11]
  Activity against Plutella xylostella [%]: 41%
